Test results from article PMC7115580 (European Journal of Medicinal Chemistry, 2017).

Target: S31N mutant M2 channel (Influenza A virus, UniProt P0DOF5, S31N)
Format: biochemical

Row | SMILES | Inhibition of S31N mutant M2 channel
1 | CC1(C)N=C(N)N=C(N)N1c1ccc(Cl)cc1 [Compound 1, cycloguanil, reference compound] | neither of the three compounds significantly inhibited
2 | CC1(C)N=C(N)N=C(N)N1c1ccc(Cl)c(Cl)c1 [Compound 16] | neither of the three compounds significantly inhibited
3 | CC1(C)N=C(N)N=C(N)N1c1cccc(C(F)(F)F)c1 [Compound 14] | neither of the three compounds significantly inhibited
